In article PMC2360206 (British Journal of Cancer, 2006):
“And” between values parts separate entries of the source, which are not always exact repeats. Equal values may be shown once. “Also recorded” adds a separate entry of the source. Read-outs that look alike come from different tables or passages of the source.

How the values were obtained:
[1] = test system: Retinoblastoma phosphorylation and cyclin D1 levels in peripheral blood mononuclear cells; assay: Pharmacodynamics in peripheral blood mononuclear cells (western blot); format: in vivo, human; settings: peripheral blood mononuclear cells of patients, first cycle
Experimental: Whole blood was collected from patients at selected time points into lithium–heparin Vacutainer® tubes (Vacutainer, BD, Franklin Lakes, NJ, USA). Each tube was inverted several times to ensure thorough mixing and then mixed with sterile 0.9% saline at a ratio of 1:1. This was then layered over ficol (Lymphoprep® Nycomed, Oslo, Norway) and centrifuged at 1200 r.p.m. (400 g equivalent) at 18°C for 30 min. The resulting mononuclear cell layer was then removed and resuspended in 0.9% NaCl. Cell pellets were obtained by centrifugation (600 g) and flash frozen in liquid nitrogen. Mononuclear cells were then stored at −70°C in labelled cryovials until further analysis.
Cell pellets were treated with lysis buffer (50 mM Tris–HCl, 150 mM NaCl, pH 7.5, 1% NP40, 2 mM PMSF, 10 μg ml^−1 aprotinin, 10 μg ml^−1 leupeptin, 1 mM activated sodium orthovanadate, 1 mM sodium fluoride and 10 mM β-glycerophosphate) for 30 min on ice. Samples (20–100 μg of protein) were heat-denatured in Laemmli sample buffer (10% glycerol, 5% β-mercaptoethanol, 2% sodium dodecyl sulphate (SDS), 62.5 mM Tris (pH 6.8), 0.05% bromphenol blue, final concentrations) and separated by SDS—polyacrylamide gel electrophoresis (PAGE) using pre-cast 10 or 15-well 20 or 10% Tris–glycine polyacrylamide gels (Invitrogen, Netherlands). […]

[2] = Phase I plasma pharmacokinetics in patients; format: in vivo, human; settings: for Cmax / half-life / AUC(0-inf) / AUC(0-t) / Tmax: human, plasma
Experimental: For PK analysis, blood samples (approximately 8 ml each) were collected in tubes with lithium heparin anticoagulant at the following time points: pre-dose and 0.5, 1, 1.5, 2, 4, 8, 12 (pre-second dose), 13, 14 and 24 h (pre-dose if day 2) after dosing on both days 1 and 7 of the first cycle. The samples were then centrifuged at 3000 r.p.m at 4°C for 10 min, the plasma transferred to 2 ml cryovials and frozen at −70°C until analysis.
Pharmacokinetic (PK) analysis was performed using the trapezoidal method and log-linear regression. The following parameters were determined either by calculation or observation: the observed maximal concentration (Cmax), the time of observed maximal concentration (Tmax), the area under the concentration–time curve calculated by the trapezoidal rule (time 0 to last sample with a quantifiable concentration (AUC (0−tz)) and extrapolated to infinity (AUC(0−∞)), the terminal rate constant, by log-linear regression (λz) and the terminal half-life from λz. The value of AUC(0−∞) was considered unreliable if the terminal area beyond the last quantified sample was greater than 20% of the total AUC(0−∞). Pharmacokinetic (PK) data analysis was carried out using a noncompartmental analysis model with the aid of Kinetica (Innaphase Limited, Amersham, UK).

[3] = test system: Urinary retinol binding protein; assay: Urinary retinol-binding protein, marker of renal tubular damage; format: in vivo, human; settings: range 0.10–100.0
Experimental: In an attempt to understand further the pathogenesis of these biochemical toxicities, three patients were studied more intensively. Urinary retinol-binding protein (RBP), a marker of renal tubular damage was measured in conjunction with functional renal imaging (MAG3 renograms) to estimate renal blood flow pretreatment on days 3 and 14. […] This was associated with bilateral increases in renal parenchymal retention on day 3 on MAG3 scans, which reverted to normal by day 14 (see Figure 1). […] There were no consistent changes in urinary RBP in any of these patients (Table 3).

[4] = test system: plasma proteins; set-up: method as in Vita et al, 2005; settings: primarily albumin; ref Vita et al, 2005; cited from earlier work
[5] = set-up: method as in earlier work; settings: exposure over a 24-h period, preclinical data, ref De la Motte and Gianella-Borradori, 2004, Whittaker et al, Tang et al, 2005; cited from earlier work
[6] = po, 100 mg, Day 1, 100 mg b.i.d. p.o. (n=3), mean, course 1
[7] = po, 100 mg, Day 1, 100 mg b.i.d. p.o. (n=3), median, course 1
[8] = po, 100 mg, Day 7, 100 mg b.i.d. p.o. (n=3), mean, course 1
[9] = po, 100 mg, Day 7, 100 mg b.i.d. p.o. (n=3), median, course 1
[10] = po, 200 mg, Day 1, 200 mg b.i.d. p.o. (n=6), mean, course 1
[11] = po, 200 mg, Day 1, 200 mg b.i.d. p.o. (n=6), median, course 1
[12] = po, 200 mg, Day 7, 200 mg b.i.d. p.o. (n=6), mean, course 1
[13] = po, 200 mg, Day 7, 200 mg b.i.d. p.o. (n=6), median, course 1
[14] = po, 800 mg, Day 1, 800 mg b.i.d. p.o. (n=12), mean, course 1
[15] = po, 800 mg, Day 1, 800 mg b.i.d. p.o. (n=12), median, course 1
[16] = po, 800 mg, Day 7, 800 mg b.i.d. p.o. (n=8), mean, course 1
[17] = po, 800 mg, Day 7, 800 mg b.i.d. p.o. (n=8), median, course 1

CC[C@H](CO)Nc1nc(NCc2ccccc2)c2ncn(C(C)C)c2n1 [Seliciclib]
Alterations of retinoblastoma phosphorylation and cyclin D1 levels [1]: not demonstrated; also recorded: No reliably detectable alterations
mean maximum plasma concentration ([2]; highest dose level (800 mg)): approximately 3 μg ml^−1
Cmax ([2]; oral, 800 mg, 800 mg dose level, read-out: mean Cmax): 3e+06 ng/mL and 10 µM
half-life ([2]; oral, similar in all dose groups, read-out: terminal (elimination) half-life): 120 to 300 min
AUC(0-inf) [2, 6]: 1920 ng·h/mL
AUC(0-t) [2, 6]: 1870 ng·h/mL
Cmax ([2]; po, 100 mg, Day 1, 100 mg b.i.d. p.o. (n=3), mean, course 1, read-out: Cmax): 248 ng/mL
Tmax ([2]; po, 100 mg, Day 1, 100 mg b.i.d. p.o. (n=3), mean, course 1, read-out: Tmax (converted)): 1.87 h
half-life ([2]; po, 100 mg, Day 1, 100 mg b.i.d. p.o. (n=3), mean, course 1, read-out: t1/2): 267 min
AUC(0-inf) [2, 7]: 1500 ng·h/mL
AUC(0-t) [2, 7]: 1370 ng·h/mL
Cmax ([2]; po, 100 mg, Day 1, 100 mg b.i.d. p.o. (n=3), median, course 1, read-out: Cmax): 134 ng/mL
Tmax ([2]; po, 100 mg, Day 1, 100 mg b.i.d. p.o. (n=3), median, course 1, read-out: Tmax (converted)): 1.02 h
half-life ([2]; po, 100 mg, Day 1, 100 mg b.i.d. p.o. (n=3), median, course 1, read-out: t1/2): 278 min
AUC(0-inf) [2, 8]: 2890 ng·h/mL
AUC(0-t) [2, 8]: 2860 ng·h/mL
Cmax ([2]; po, 100 mg, Day 7, 100 mg b.i.d. p.o. (n=3), mean, course 1, read-out: Cmax): 162 ng/mL
Tmax ([2]; po, 100 mg, Day 7, 100 mg b.i.d. p.o. (n=3), mean, course 1, read-out: Tmax (converted)): 3.17 h
half-life ([2]; po, 100 mg, Day 7, 100 mg b.i.d. p.o. (n=3), mean, course 1, read-out: t1/2): 268 min
AUC(0-inf) [2, 9]: 3040 ng·h/mL
AUC(0-t) [2, 9]: 3030 ng·h/mL
Cmax ([2]; po, 100 mg, Day 7, 100 mg b.i.d. p.o. (n=3), median, course 1, read-out: Cmax): 152 ng/mL
Tmax ([2]; po, 100 mg, Day 7, 100 mg b.i.d. p.o. (n=3), median, course 1, read-out: Tmax (converted)): 4 h
half-life ([2]; po, 100 mg, Day 7, 100 mg b.i.d. p.o. (n=3), median, course 1, read-out: t1/2): 234 min
AUC(0-inf) [2, 10]: 3030 ng·h/mL
AUC(0-t) [2, 10]: 2770 ng·h/mL
Cmax ([2]; po, 200 mg, Day 1, 200 mg b.i.d. p.o. (n=6), mean, course 1, read-out: Cmax): 179 ng/mL
Tmax ([2]; po, 200 mg, Day 1, 200 mg b.i.d. p.o. (n=6), mean, course 1, read-out: Tmax (converted)): 4.65 h
half-life ([2]; po, 200 mg, Day 1, 200 mg b.i.d. p.o. (n=6), mean, course 1, read-out: t1/2): 176 min
AUC(0-inf) [2, 11]: 3840 ng·h/mL
AUC(0-t) [2, 11]: 3080 ng·h/mL
Cmax ([2]; po, 200 mg, Day 1, 200 mg b.i.d. p.o. (n=6), median, course 1, read-out: Cmax): 80 ng/mL
Tmax ([2]; po, 200 mg, Day 1, 200 mg b.i.d. p.o. (n=6), median, course 1, read-out: Tmax (converted)): 2.78 h
half-life ([2]; po, 200 mg, Day 1, 200 mg b.i.d. p.o. (n=6), median, course 1, read-out: t1/2): 149 min
AUC(0-inf) [2, 12]: 4250 ng·h/mL
AUC(0-t) [2, 12]: 2930 ng·h/mL
Cmax ([2]; po, 200 mg, Day 7, 200 mg b.i.d. p.o. (n=6), mean, course 1, read-out: Cmax): 310 ng/mL
Tmax ([2]; po, 200 mg, Day 7, 200 mg b.i.d. p.o. (n=6), mean, course 1, read-out: Tmax (converted)): 1.03 h
half-life ([2]; po, 200 mg, Day 7, 200 mg b.i.d. p.o. (n=6), mean, course 1, read-out: t1/2): 781 min
AUC(0-inf) [2, 13]: 3480 ng·h/mL
AUC(0-t) [2, 13]: 3080 ng·h/mL
Cmax ([2]; po, 200 mg, Day 7, 200 mg b.i.d. p.o. (n=6), median, course 1, read-out: Cmax): 303 ng/mL
Tmax ([2]; po, 200 mg, Day 7, 200 mg b.i.d. p.o. (n=6), median, course 1, read-out: Tmax (converted)): 1 h
half-life ([2]; po, 200 mg, Day 7, 200 mg b.i.d. p.o. (n=6), median, course 1, read-out: t1/2): 228 min
AUC(0-inf) [2, 14]: 53000 ng·h/mL
AUC(0-t) [2, 14]: 52700 ng·h/mL
Cmax ([2]; po, 800 mg, Day 1, 800 mg b.i.d. p.o. (n=12), mean, course 1, read-out: Cmax): 3200 ng/mL
Tmax ([2]; po, 800 mg, Day 1, 800 mg b.i.d. p.o. (n=12), mean, course 1, read-out: Tmax (converted)): 2.95 h
half-life ([2]; po, 800 mg, Day 1, 800 mg b.i.d. p.o. (n=12), mean, course 1, read-out: t1/2): 219 min
AUC(0-inf) [2, 15]: 57500 ng·h/mL
AUC(0-t) [2, 15]: 57400 ng·h/mL
Cmax ([2]; po, 800 mg, Day 1, 800 mg b.i.d. p.o. (n=12), median, course 1, read-out: Cmax): 3160 ng/mL
Tmax ([2]; po, 800 mg, Day 1, 800 mg b.i.d. p.o. (n=12), median, course 1, read-out: Tmax (converted)): 2 h
half-life ([2]; po, 800 mg, Day 1, 800 mg b.i.d. p.o. (n=12), median, course 1, read-out: t1/2): 232 min
AUC(0-inf) [2, 16]: 26600 ng·h/mL
AUC(0-t) [2, 16]: 26500 ng·h/mL
Cmax ([2]; po, 800 mg, Day 7, 800 mg b.i.d. p.o. (n=8), mean, course 1, read-out: Cmax): 2770 ng/mL
Tmax ([2]; po, 800 mg, Day 7, 800 mg b.i.d. p.o. (n=8), mean, course 1, read-out: Tmax (converted)): 1.65 h
half-life ([2]; po, 800 mg, Day 7, 800 mg b.i.d. p.o. (n=8), mean, course 1, read-out: t1/2): 230 min
AUC(0-inf) [2, 17]: 21300 ng·h/mL
AUC(0-t) [2, 17]: 21300 ng·h/mL
Cmax ([2]; po, 800 mg, Day 7, 800 mg b.i.d. p.o. (n=8), median, course 1, read-out: Cmax): 2640 ng/mL
Tmax ([2]; po, 800 mg, Day 7, 800 mg b.i.d. p.o. (n=8), median, course 1, read-out: Tmax (converted)): 1.78 h
half-life ([2]; po, 800 mg, Day 7, 800 mg b.i.d. p.o. (n=8), median, course 1, read-out: t1/2): 209 min
Tmax ([2]; po, all dose levels, oral, read-out: Tmax range (time to peak plasma concentrations)): 1 to 4 h
Tmax ([2]; po, all dose levels, oral, read-out: mean Tmax): 2.55 h
plasma clearance ([2]; patients, oral): greater than liver blood flow
Urinary retinol binding protein ([3]; Patient 20, Day 3, 800 mg b.i.d.): 59.2 mg/mol creatinine
Urinary retinol binding protein ([3]; Patient 20, Day 14, 800 mg b.i.d.): 20.8 mg/mol creatinine
Urinary retinol binding protein ([3]; Patient 21, Day 3, 800 mg b.i.d.): 44.7 mg/mol creatinine
Urinary retinol binding protein ([3]; Patient 21, Day 14, 800 mg b.i.d.): 25.7 mg/mol creatinine
Urinary retinol binding protein ([3]; Patient 22, Day 3, 800 mg b.i.d.): 7.9 mg/mol creatinine
Urinary retinol binding protein ([3]; Patient 22, Day 14, 800 mg b.i.d.): 40.1 mg/mol creatinine
Bound to plasma proteins [4]: 90%
concentration range achieving clinically relevant biological effects [5]: 7.9–30.2 μM
